Key:
[1] = Lipophilicity, logD of the compound at pH 7.4 by chromatographic method; type: physicochemical; conditions: buffer
[2] = target: Bromodomain-containing protein 4 (Homo sapiens, UniProt O60885, Y390A); assay: Displacement of Alexa Fluor 647 labelled ligand from His6-thr-tagged BRD4 BD1 (1 to 477 residues)/BD2 Y390A mutant (unknown origin) after 30 mins by TR-FRET assay
[3] = target: Bromodomain-containing protein 4 (Homo sapiens, UniProt O60885, Y97A); assay: Displacement of Alexa Fluor 647 labelled ligand from His6-tagged BRD4 BD2 (1 to 477 residues)/BD1 Y97A mutant (unknown origin) after 30 mins by TR-FRET assay
[4] = tested on: Bromodomain-containing protein 4 (Homo sapiens), O60885 [UNDEFINED MUTATION]; assay: Selectivity index, […] for His6-thr-tagged BRD4 BD1 (1 to 477 residues)/BD2 Y390A mutant (unknown origin) to pIC50 for His6-tagged BRD4 BD2 (1 to 477 residues)/BD1 Y97A mutant (unknown origin)
[5] = target: T1, ATPase family AAA domain-containing protein 2 (Homo sapiens, UniProt Q6PL18); assay: Inhibition of ATAD2 (unknown origin) by TR-FRET assay
T1 sequence (Q6PL18 whole entry): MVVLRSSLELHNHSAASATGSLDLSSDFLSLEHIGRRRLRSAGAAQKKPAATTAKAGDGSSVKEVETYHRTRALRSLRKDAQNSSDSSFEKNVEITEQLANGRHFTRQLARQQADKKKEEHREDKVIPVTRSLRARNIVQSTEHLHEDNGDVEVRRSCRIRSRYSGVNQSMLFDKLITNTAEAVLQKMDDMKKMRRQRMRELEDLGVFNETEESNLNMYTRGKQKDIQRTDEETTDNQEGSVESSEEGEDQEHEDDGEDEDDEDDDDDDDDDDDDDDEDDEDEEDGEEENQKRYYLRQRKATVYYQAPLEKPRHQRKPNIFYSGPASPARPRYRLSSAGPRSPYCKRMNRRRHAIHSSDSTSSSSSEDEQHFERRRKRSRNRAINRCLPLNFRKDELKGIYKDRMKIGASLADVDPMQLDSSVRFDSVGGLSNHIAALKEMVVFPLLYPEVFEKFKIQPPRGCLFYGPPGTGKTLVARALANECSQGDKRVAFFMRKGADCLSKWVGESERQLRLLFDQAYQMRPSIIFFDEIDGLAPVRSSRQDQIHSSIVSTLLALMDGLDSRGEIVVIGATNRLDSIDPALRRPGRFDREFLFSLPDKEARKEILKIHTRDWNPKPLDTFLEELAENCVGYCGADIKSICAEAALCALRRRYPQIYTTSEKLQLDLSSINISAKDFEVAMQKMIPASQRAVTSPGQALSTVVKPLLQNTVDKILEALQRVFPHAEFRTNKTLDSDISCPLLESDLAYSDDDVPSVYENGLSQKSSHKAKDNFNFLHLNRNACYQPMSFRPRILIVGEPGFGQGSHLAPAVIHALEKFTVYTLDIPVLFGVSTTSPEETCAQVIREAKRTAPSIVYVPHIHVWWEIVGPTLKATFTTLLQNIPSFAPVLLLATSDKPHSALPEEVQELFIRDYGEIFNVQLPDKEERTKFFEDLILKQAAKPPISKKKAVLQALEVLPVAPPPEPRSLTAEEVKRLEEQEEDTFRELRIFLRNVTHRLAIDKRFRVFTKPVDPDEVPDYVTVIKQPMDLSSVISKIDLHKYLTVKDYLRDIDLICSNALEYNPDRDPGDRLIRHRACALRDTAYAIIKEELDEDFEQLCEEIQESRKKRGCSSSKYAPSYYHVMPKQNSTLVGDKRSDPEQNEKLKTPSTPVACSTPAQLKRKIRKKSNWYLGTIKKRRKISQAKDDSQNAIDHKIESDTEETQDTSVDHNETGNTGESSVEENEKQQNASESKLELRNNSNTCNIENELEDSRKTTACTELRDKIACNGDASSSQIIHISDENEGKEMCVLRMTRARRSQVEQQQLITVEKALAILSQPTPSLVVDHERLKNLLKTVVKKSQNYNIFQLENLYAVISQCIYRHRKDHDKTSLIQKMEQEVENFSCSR

[6] = Permeability of the compound in pH 7.4 phosphate buffer measured after 3 hrs by artificial membrane permeability assay based HPLC analysis; type: ADME; conditions: PAMPA, pH 7.4, read-out: permeability

SMILES	chromatographic logD [1]	IC50 [2] [µM]	IC50 [3] [µM]	Selectivity Index [4]	IC50 [5] [µM]	Papp at 3 h [6] [×10⁻⁶ cm/s]	logD [1]
Cc1cncc(-c2cnc(N[C@@H]3CCNC[C@H]3C(=O)NC3CCCCC3)c3[nH]c(=O)c(C)cc23)c1 (relative stereo)	2.51	1.26	> 50.1	> 40	–	–	–
Cc1cc2ccnc(N[C@@H]3CCNC[C@@H]3C(=O)NC3CCCCC3)c2[nH]c1=O (relative stereo)	1.88	5.01	> 50.1	> 10	> 39.8	–	–
Cc1cc2c(C3=CCCCC3)cnc(N[C@@H]3CCNC[C@H]3C(=O)NC3CCCCC3)c2[nH]c1=O (mixture of isomers)	4.78	1	12.6	10	–	–	–
Cc1cc2ccnc(N[C@@H]3CCNC[C@H]3C(=O)N[C@@H]3CCCOC3)c2[nH]c1=O (mixture of isomers)	0.85	3.98	> 50.1	> 10	> 39.8	–	–
Cc1cc2ccnc(N[C@@H]3CCNC[C@H]3C(=O)NCC(C)C)c2[nH]c1=O (mixture of isomers)	1.6	2	> 50.1	> 25	> 39.8	–	–
Cc1cc2cccc(N[C@@H]3CCNC[C@H]3C(=O)NC3CCCCC3)c2[nH]c1=O (racemic)	2.52	3.16	31.6	10	–	< 0.3	–
Cc1ccc(-c2cnc(N[C@@H]3CCN(C)C[C@H]3C(=O)NC3CCCCC3)c3[nH]c(=O)c(C)cc23)o1	4.33	0.0251	15.8	631	–	–	–
Cc1ccc(-c2cnc(N[C@@H]3CCN(C)C[C@H]3C(=O)NC3CCCCC3)c3[nH]c(=O)c(C)cc23)s1	5.3	0.0631	> 50.1	> 794	–	–	–
C/C=C/c1cnc(N[C@@H]2CCNC[C@H]2C(=O)NC2CCCCC2)c2[nH]c(=O)c(C)cc12 (racemic)	3.55	0.126	31.6	250	–	–	–
Cc1coc(-c2cnc(N[C@@H]3CCN(C)C[C@H]3C(=O)NC3CCCCC3)c3[nH]c(=O)c(C)cc23)c1	4.46	0.0398	20	501	–	–	–
Cc1cc2c(-c3cccs3)cnc(N[C@@H]3CCN(C)C[C@H]3C(=O)NC3CCCCC3)c2[nH]c1=O	4.61	0.0158	3.98	251	–	–	–
Cc1cc2c(-c3ccco3)cnc(N[C@H]3CCNC[C@@H]3C(=O)NC3CCCCC3)c2[nH]c1=O	3.12	1.58	10	–	–	–	–
Cc1cc2c(-c3cnn(C)c3)cnc(N[C@@H]3CCNC[C@H]3C(=O)NC3CCCCC3)c2[nH]c1=O (mixture of isomers)	1.47	0.158	15.8	100	–	–	–
Cc1cc2ccnc(N[C@@H]3CCNC[C@H]3C(=O)NCC3CCCC3)c2[nH]c1=O (mixture of isomers)	2.36	1.58	> 50.1	> 30	> 39.8	–	–
Cc1cc2c(C3=CCOCC3)cnc(N[C@@H]3CCNC[C@H]3C(=O)NC3CCCCC3)c2[nH]c1=O (mixture of isomers)	2.07	1.26	39.8	30	–	–	–
Cc1cc2c(-c3cccs3)cnc(N[C@@H]3CCNC[C@H]3C(=O)NC3CCCCC3)c2[nH]c1=O (racemic)	3.23	0.0501	31.6	630	–	–	–

SMILES	chromatographic logD [1]	IC50 [2] [µM]	IC50 [3] [µM]	Selectivity Index [4]	IC50 [5] [µM]	Papp at 3 h [6] [×10⁻⁶ cm/s]	logD [1]
Cc1cc2ccnc(N[C@@H]3CCNC[C@H]3C(=O)N[C@H]3CCCOC3)c2[nH]c1=O (mixture of isomers)	0.98	25.1	> 50.1	> 2	> 39.8	–	–
Cc1ccsc1-c1cnc(N[C@@H]2CCN(C)C[C@H]2C(=O)NC2CCCCC2)c2[nH]c(=O)c(C)cc12 (relative stereo)	5.13	0.1	31.6	316	–	–	–
Cc1cc2ccnc(N[C@@H]3CCNC[C@H]3C(=O)NCC3CC3)c2[nH]c1=O (mixture of isomers)	1.05	3.16	> 50.1	> 15	> 39.8	–	–
Cc1cc2c(-c3cnn(C)c3)cnc(N[C@@H]3CCN(C)C[C@H]3C(=O)NC3CCCCC3)c2[nH]c1=O	2.43	0.0794	20	251	–	–	–
Cc1cc2c(-c3ccoc3)cnc(N[C@@H]3CCNC[C@H]3C(=O)NC3CCCCC3)c2[nH]c1=O (mixture of isomers)	2.91	0.0398	12.6	316	–	–	–
Cc1cc2ccnc(N[C@@H]3CCNC[C@H]3C(=O)NC3CCCC3)c2[nH]c1=O (relative stereo)	1.87	2.51	39.8	15	> 39.8	–	–
Cc1cc2c(-c3ccccc3)cnc(N[C@@H]3CCNC[C@H]3C(=O)NC3CCCCC3)c2[nH]c1=O (mixture of isomers)	3.36	0.631	25.1	40	–	–	–
CO[C@@H](C)CNC(=O)[C@@H]1CNCC[C@H]1Nc1nccc2cc(C)c(=O)[nH]c12 (mixture of isomers)	1.08	7.94	31.6	4	> 39.8	–	–
Cc1cc2ccnc(N[C@@H]3CCNC[C@H]3C(=O)N[C@H](C)C(C)C)c2[nH]c1=O (relative stereo)	1.89	5.01	> 50.1	> 10	> 39.8	–	–
Cc1cc2c(-c3ccco3)cnc(N[C@@H]3CCNC[C@H]3C(=O)NC3CCCCC3)c2[nH]c1=O (racemic)	–	0.0398	25.1	–	–	3.8	3.14
Cc1cc2c(C3=CCCC3)cnc(N[C@@H]3CCNC[C@H]3C(=O)NC3CCCCC3)c2[nH]c1=O (mixture of isomers)	4.4	0.2	39.8	200	–	–	–
Cc1ccoc1-c1cnc(N[C@@H]2CCN(C)C[C@H]2C(=O)NC2CCCCC2)c2[nH]c(=O)c(C)cc12	4.35	0.0501	15.8	316	–	–	–
Cc1csc(-c2cnc(N[C@@H]3CCN(C)C[C@H]3C(=O)NC3CCCCC3)c3[nH]c(=O)c(C)cc23)c1	5.27	0.0501	15.8	316	–	–	–
Cc1cc2ccnc(N[C@@H]3CCNC[C@H]3C(=O)NC3CCOCC3)c2[nH]c1=O (mixture of isomers)	0.71	2.51	12.6	5	> 39.8	–	–
CO[C@H]1CNC[C@@H](OCC2CCC(F)(F)CC2)[C@@H]1Nc1ncc(-c2cncc(C)c2)c2cc(C)c(=O)[nH]c12	3.17	–	–	–	–	–	–
Cc1cc2c(-c3ccsc3)cnc(N[C@@H]3CCNC[C@H]3C(=O)NC3CCCCC3)c2[nH]c1=O (mixture of isomers)	3.79	0.1	> 50.1	> 501	–	–	–
